The record followed here is patent US9227960B2, “Bisaryl (thio)morpholine derivatives as S1P modulators” (ABBVIE B.V., priority 2010, dated 2016).

Where a name gives a salt, the structure may show the parent alone.

One data set addresses T1, human S1P1 (Homo sapiens, UniProt P21453).
T1 construct: host or cells: CHO-K1
The data set is described as follows: In vitro functional activity (agonism) on human S1P1 receptors, CHO-K1-Human S1P1-c-AMP assay. The class given is cell-based. The following applies: CHO-K1 cells expressing human S1P1, cAMP with Forskolin (HTRF), read-out: S1P1 pEC50 (converted). The procedure:
In Vitro Functional Activity (Agonism) on Human S1P1 Receptors
The CHO-K1-Human S1P1-c-AMP assay was performed at Euroscreenfast, Brussels (Euroscreen, Human S1P1 coupling […] (Edg1) receptor, catalog no: FAST-0197C, December 2009).
Recombinant CHO-K1 cells expressing human S1P1, grown to mid-log Phase in culture media without antibiotics, detached, centrifuged and re-suspended. For agonist testing cells are mixed with compound and Forskolin and incubated at room temperature. Cells are lyses and cAMP concentration are estimated, according to the manufacturer specification, With the HTRF kit from CIS-BIO International (cat n° 62AM2PEB).
Agonistic effects of compounds are expressed as a percentage of the activity of the reference compound at its EC100 concentration, EC50 is calculated and results are reported as pEC50. Compounds were tested at a 10 points half log concentration range duplicated in 1 experiment.
(TR-FRET usually uses a lanthanide donor and a delayed reading to cut background.)

A further data set deals with T2, human S1P5 receptor (Homo sapiens, UniProt Q9H228).
T2 construct: host or cells: CHO (AequoScreen recombinant cell line, co-expressing mitochondrially targeted apo-Aequorin)
Kind of data set: In vitro functional activity (agonism) on human S1P5 receptors, CHO-human-S1P5-Aequorin assay. The class given is cell-based. The following applies: CHO-human-S1P5-Aequorin cells, luminescence, read-out: S1P5 pEC50 (converted). The text has this:
In Vitro Functional Activity (Agonism) on Human S1P5 Receptors
(§1) The CHO-human-S1P5-Aecorin assay was bought from Euroscreen, Brussels (Euroscreen, Technical dossier, Human Lysophospholid S1P5 (Edg8) receptor, DNA clone and CHO AequoScreen™ recombinant cell-line, catalog no: ES-593-A, September 2006). Human-S1P5-Aequorin cells express mitochondrial targeted apo-Aequorin. Cells have to be loaded with coelanterazine, in order to reconstitute active Aequorin. After binding of agonists to the human S1P5 receptor the intracellular calcium concentration increases and binding of calcium to the apo-Aequorin/coelenterazine complex leads to an oxidation reaction of coelenterazine, which results in the production of apo-Aequorin, coelenteramide, CO2 and light (λmax 469 nm). This luminescent response is dependent on the agonist concentration. Luminescence is measured using the MicroBeta Jet (Perkin Elmer). Agonistic effects of compounds are expressed as pEC50. Compounds were tested at a 10 points half log concentration range, and 3 independent experiments were performed in single point's measurements.

In a further data set the target is T3, human S1P3 receptor (Homo sapiens, UniProt Q99500).
T3 construct: cell line established at Solvay Pharmaceuticals; host or cells: CHO K1 (CHO/Gα16/AEQ/h-S1P3)
Kind of data set: In vitro functional activity (agonism) on human S1P3 receptors, CHO-human-S1P3-Aequorin assay. Format: cell-based. The following applies: CHO/Gα16/AEQ/h-S1P3 cells, luminescence, read-out: S1P3 pEC50 (converted).
Excerpt: In Vitro Functional Activity (Agonism) on Human S1P3 Receptors
The CHO-human-S1P3-Aeqorin assay (CHO/Gα16/AEQ/h-S1P3) was established at Solvay Pharmaceuticals. The plasmid DNA coding for the S1P3 receptor (accession number in GenBank NM_005226 was purchased from UMR cDNA resource Centre (Rolla, Mo.). The pcDNA3.1/hS1P3 construct carrying the mitochondrially targeted apo-Aeqorin and Gα16 protein was transfected in CHO K1 cell-line.
as §1, with “Human-S1P3-Aequorin” for “The CHO-human-S1P5-Aecorin assay was bought from Euroscreen, Brussels (Euroscreen, Technical dossier, Human Lysophospholid S1P5 (Edg8) receptor, DNA clone and CHO AequoScreen™ recombinant cell-line, catalog no: ES-593-A, September 2006). Human-S1P5-Aequorin”, “S1P3” for “S1P5”

T1 sequence (P21453 whole entry): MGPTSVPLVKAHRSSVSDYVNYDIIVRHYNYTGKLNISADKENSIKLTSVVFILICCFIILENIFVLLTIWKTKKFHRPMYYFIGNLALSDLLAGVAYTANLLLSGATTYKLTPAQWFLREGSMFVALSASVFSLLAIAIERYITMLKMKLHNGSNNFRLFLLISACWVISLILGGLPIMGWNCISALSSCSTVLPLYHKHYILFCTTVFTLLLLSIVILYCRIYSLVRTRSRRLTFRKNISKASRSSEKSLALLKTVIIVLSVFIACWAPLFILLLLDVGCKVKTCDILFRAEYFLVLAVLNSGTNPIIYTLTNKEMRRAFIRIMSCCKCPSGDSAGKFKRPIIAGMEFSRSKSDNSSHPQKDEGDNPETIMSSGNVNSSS
T2 sequence (Q9H228 whole entry): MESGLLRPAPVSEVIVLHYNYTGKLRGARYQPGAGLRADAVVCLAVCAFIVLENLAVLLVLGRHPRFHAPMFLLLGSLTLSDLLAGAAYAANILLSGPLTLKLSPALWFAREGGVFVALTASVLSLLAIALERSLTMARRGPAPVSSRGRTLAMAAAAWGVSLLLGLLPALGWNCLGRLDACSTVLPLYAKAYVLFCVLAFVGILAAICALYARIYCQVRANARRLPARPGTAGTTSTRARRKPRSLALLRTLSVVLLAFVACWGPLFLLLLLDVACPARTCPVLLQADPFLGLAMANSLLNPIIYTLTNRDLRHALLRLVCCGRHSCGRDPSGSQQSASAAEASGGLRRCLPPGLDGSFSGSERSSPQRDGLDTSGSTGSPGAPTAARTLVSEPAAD
T3 sequence (Q99500 whole entry): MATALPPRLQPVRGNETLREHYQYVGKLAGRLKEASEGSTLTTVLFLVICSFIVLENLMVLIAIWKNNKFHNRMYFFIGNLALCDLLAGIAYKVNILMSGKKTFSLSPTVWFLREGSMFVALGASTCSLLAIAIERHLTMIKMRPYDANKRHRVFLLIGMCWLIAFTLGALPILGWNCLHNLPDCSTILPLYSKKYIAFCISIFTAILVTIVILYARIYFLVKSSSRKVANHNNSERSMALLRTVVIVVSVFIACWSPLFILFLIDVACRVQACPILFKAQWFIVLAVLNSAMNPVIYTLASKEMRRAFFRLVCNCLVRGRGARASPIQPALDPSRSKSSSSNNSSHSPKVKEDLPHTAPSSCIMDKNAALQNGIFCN

In general, melting point refers to the temperature of the solid-liquid transition. For the compound `Cl.O=C(O)CCN1CCSC(c2ccc(Oc3ccccc3Cl)cc2)C1` (centres unmarked), the melting point lay within 155 to 160 °C.
Take `CC1(C)CN(CCC(=O)O)CC(c2ccc(Oc3c(Cl)cccc3Cl)cc2)O1` (centres unmarked) [Compound 73, 3-{6-[4-(2,6-Dichloro-phenoxy)-phenyl]-2,2-dimethyl-morpholin-4-yl}-propionic acid]: the EC50 on human S1P1 is over 3160 nM; on human S1P5 receptor it was 158 nM.
As to `Cl.O=C(O)CCN1CCOC(c2ccc(Oc3c(Cl)cccc3Cl)cc2C(F)(F)F)C1` (centres unmarked), the melting point lay within 135 to 136 °C.
`Cc1cccc(Oc2ccc(C3CN(CCC(=O)O)CCS3)cc2)c1C.Cl` (centres unmarked): the melting point was in the range of 178 to 183 °C.
`Cc1cccc(C)c1Oc1cccc(C2CN(CCC(=O)O)CCO2)c1` (centres unmarked) (as salt: hydrochloride): the melting point was 219 to 223 °C.
`Cc1cccc(Cl)c1Oc1ccc(C2CN(CCC(=O)O)CCS2)cc1.Cl` (centres unmarked) showed a melting point of 192.5 to 195 °C.
Consider `Cc1ccc(Oc2ccc(C3CN(CCC(=O)O)CCO3)cc2)cc1` (centres unmarked) [Compound 64, 3-[2-(4-p-Tolyloxy-phenyl)-morpholin-4-yl]-propionic acid hydrochloride], for which the EC50 is 1580 nM at human S1P5 receptor and over 10000 nM at human S1P3 receptor.
For `O=C(O)CCN1CCOC(c2ccc(C(=O)c3c(Cl)cccc3Cl)cc2)C1` (centres unmarked) [Compound 6, 3-{2-[4-(2,6-Dichloro-benzoyl)-phenyl]-morpholin-4-yl}-propionic acid hydrochloride], the EC50 is over 3160 nM at human S1P1, 501 nM on human S1P5 receptor and over 10000 nM on human S1P3 receptor.
For the compound `CCCCc1ccc(Oc2ccc(C3CN(CCC(=O)O)CCO3)cc2)cc1` (centres unmarked) [Compound 26, 3-{2-[4-(4-Butyl-phenoxy)-phenyl]-morpholin-4-yl}-propionic acid hydrochloride], the EC50 was 2000 nM on human S1P5 receptor and 5010 nM on human S1P3 receptor.
For `Cc1ccc(Oc2ccc(C3CN(CCC(=O)O)CCO3)cc2)cc1C` (centres unmarked) [Compound 47, 3-{2-[4-(3,4-Dimethyl-phenoxy)-phenyl]-morpholin-4-yl}-propionic acid hydrochloride], the values for the EC50 on human S1P5 receptor and on human S1P3 receptor were 200 nM and over 10000 nM, respectively.
In the case of `O=C(O)CCN1CCOC(c2ccc(Oc3cccc4ccccc34)cc2)C1` (centres unmarked) [Compound 29, 3-{2-[4-(Naphthalen-1-yloxy)-phenyl]-morpholin-4-yl}-propionic acid hydrochloride], the EC50 on human S1P5 receptor was 63.1 nM; on human S1P3 receptor, over 10000 nM.
With `Cc1cccc(Oc2ccc(C3(C)CN(CCC(=O)O)CCO3)cc2)c1C` (centres unmarked) [Compound 80, 3-{2-[4-(2,3-Dimethyl-phenoxy)-phenyl]-2-methyl-morpholin-4-yl}-propionic acid hydrochloride], the EC50 was over 31600 nM on human S1P1, 631 nM at human S1P5 receptor and over 10000 nM on human S1P3 receptor.
With `O=C(O)CCN1CCOC(c2ccc(Oc3ccccc3C(F)(F)F)cc2)C1` (centres unmarked) [Compound 35, 3-{2-[4-(2-Trifluoromethyl-phenoxy)-phenyl]-morpholin-4-yl}-propionic acid hydrochloride], the EC50 on human S1P5 receptor is 200 nM; on human S1P3 receptor, over 10000 nM.
The compound `Cl.O=C(O)CCN1CCOC(c2ccc(Oc3c(Cl)cccc3Cl)c(Cl)c2)C1` (centres unmarked) showed a melting point of 224 to 227 °C.
As to `Cc1ccc(Oc2ccc(C3CN(CCC(=O)O)CCO3)cc2)cc1Cl` (centres unmarked) [Compound 15, 3-{2-[4-(3-Chloro-4-methyl-phenoxy)-phenyl]-morpholin-4-yl}-propionic acid hydrochloride], the EC50 was 501 nM on human S1P5 receptor and over 10000 nM on human S1P3 receptor.
On to `Cc1cccc(C)c1Nc1ccc(C2CN(CCC(=O)O)CCO2)cc1` (centres unmarked) [Compound 2, 3-{2-[4-(2,6-Dimethyl-phenylamino)-phenyl]-morpholin-4-yl}-propionic acid hydrochloride], for which the EC50 on human S1P5 receptor is 631 nM; on human S1P3 receptor it was over 10000 nM.
Consider `Cl.O=C(O)CCN1CCOC(c2ccc(Oc3c(Cl)cccc3Cl)cc2F)C1` (centres unmarked), for which the melting point lay within 207 to 209 °C.
`Cc1cccc(Oc2ccc(C3CN(CCCC(=O)O)CCO3)cc2)c1C` (centres unmarked) (as salt: hydrochloride) [Compound 87, 4-{2-[4-(2,3-Dimethyl-phenoxy)-phenyl]-morpholin-4-yl}-butyric acid hydrochloride] showed a melting point of 225 to 227 °C.
For `O=C(O)CCN1CCOC(c2ccc(Oc3ccc(OCc4ccccc4)cc3)cc2)C1` (centres unmarked) [Compound 57, 3-{2-[4-(4-Benzyloxy-phenoxy)-phenyl]-morpholin-4-yl}-propionic acid hydrochloride], the values for the EC50 at human S1P5 receptor and at human S1P3 receptor were 2000 nM and over 10000 nM, respectively.
With `Cc1cccc(Oc2ccc(C3CN(CCCC(=O)O)CCO3)cc2)c1C` (centres unmarked) [Compound 87, 4-{2-[4-(2,3-Dimethyl-phenoxy)-phenyl]-morpholin-4-yl}-butyric acid hydrochloride], the EC50 on human S1P5 receptor was 1000 nM.
Take `O=C(O)CCN1CCOC(c2ccc(Oc3ccc4ccccc4c3)cc2)C1` (centres unmarked) [Compound 68, 3-{2-[4-(Naphthalen-2-yloxy)-phenyl]-morpholin-4-yl}-propionic acid hydrochloride]: the EC50 on human S1P5 receptor is 631 nM; at human S1P3 receptor it was over 10000 nM.
